Patent publication US8420100B2, “Tumor suppressor activating polypeptides and uses thereof” (Department of Biotechnology, priority 2006, dated 2013)

How the values were obtained:
[1] = tested on: p53-driven p21 promoter in K562 (p53-/-) cells; experiment: p21 luciferase reporter assay in K562 (p53-/-) cells; assay type: cell-based; details: 10 μM peptide; for activation of p53 (p21 promoter driven luciferase activity): K562 (p53-/-) co-transfected with p21 luciferase reporter and p53 constructs, 12 h
Experimental: TAT-SMAR1 WT peptide (P44) modulates p53 function: To examine whether P44 peptide could alone activate p53^−, luciferase reporter assays were performed following treatment of cells with the chimeric TAT-SMAR1 derived peptides. HEK 293 (p53^+/+) cells were transfected with p21 expression plasmid having luciferase reporter gene and K562 (p53^−/−) cells were co-transfected with p21 luciferase reporter and p53 constructs. […] (FIG. 2A, bar 3) and about 1.5 fold activation in p53^−/− cell line (FIG. 2B, bar 4).
FIG. 2. P44 peptide activates the p53-driven p21 gene expression in reporter assays. p21 promoter activity was checked in both HEK 293 (p53^+/+) (A) and K562 (P53^−/−) cells (B). Cells were transfected with either pG13 […] reporter plasmid, a p53-driven p21 promoter, in HEK 293 cells or cotransfected with wild-type (wt) p53 in K562 cells. After 24 h post-transfection, cells were treated for 12 h with 10 μM concentration of various TAT-SMAR1 chimeric peptides. Y axis represents the fold luciferase activity (mean±SD of three independent experiments).
Luciferase reporter assay: HEK 293 (p53^+/+) and K562 (p53^−/−) cells were grown in DMEM supplemented with 10% FBS in the presence of 5% CO2 at 37° C., a total number of 1×10^6, cells were plated on a 6-well plate. After 24 h, cells were transiently transfected using lipofectamine-2000 with either 1 μg of p21 expression plasmid having luciferase reporter gene or 5 μg p21 luciferase along with wt p53 construct in K562 cell line. Two micrograms of pRL-CMV (Renilla luciferase reporter plasmid) was included in all transfections to normalize the transfection efficiency. Thirty six hours post-transfection, cells were treated with 10 μM of either P44 peptide or its various mutants. The cells were harvested 12 h post-treatment, washed with PBS and lysed in 1× Passive lysis buffer (Promega). After three freeze-thaw cycles, cells were spun at 10,000 rpm at 4° C. for 20 min. The supernatants were collected and protein concentrations were estimated spectrophotometrically using Bradford reagent as (BioRad, CA). According to the manufacturer's instructions, luciferase activity was assessed using the dual luciferase assay reporter kit (Promega). The luciferase activity was measured by using Fluoroskan Ascent Luminometer (Labsystems). For all the luciferase assays, the data shown are the mean+SD of three independent experiments.

[2] = target: T1, p53 (serine-15 phosphorylation) (Homo sapiens, UniProt P04637); experiment: Western blotting for total p53 and phospho serine-15 p53 in peptide-treated HEK 293 cells; assay type: cell-based; details: for p53 activation (pSer-15 p53 level): HEK 293, 10 μM peptide, 12 h (FIG. 4A)
T1 construct: HEK 293 (p53^+/+) cells; endogenous in cells; host or cells: HEK 293
T1 sequence (P04637 whole entry): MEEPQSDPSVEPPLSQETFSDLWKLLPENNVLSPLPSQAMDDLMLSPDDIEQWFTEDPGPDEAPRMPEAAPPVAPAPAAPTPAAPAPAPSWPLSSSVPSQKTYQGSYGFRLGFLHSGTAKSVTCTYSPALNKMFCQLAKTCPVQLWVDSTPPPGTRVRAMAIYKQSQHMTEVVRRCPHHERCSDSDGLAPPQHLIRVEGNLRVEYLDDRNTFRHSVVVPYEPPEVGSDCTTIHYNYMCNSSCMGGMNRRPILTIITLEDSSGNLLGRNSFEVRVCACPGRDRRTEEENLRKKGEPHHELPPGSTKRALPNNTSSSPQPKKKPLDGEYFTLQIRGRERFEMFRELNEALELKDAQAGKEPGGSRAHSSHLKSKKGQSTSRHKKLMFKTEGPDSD
Experimental: (§1) P44 peptide controls the activity of cell cycle regulatory proteins: The minimal dose of P44 peptide that was functionally effective in activating p53 was evaluated by incubating HEK 293 cells with varying concentrations of P44 peptide (1-100 μM) (FIG. 3A) and after 12 h of incubation, protein lysates were prepared and processed for immunoblotting with total p53 (DO-1) and p53 ser-15 phospho-specific antibodies. […] However, there was a 4.5-fold increase in the expression of phosphorylated p53 (pSerine-15 p53) in P44 peptide-treated cells (FIG. 3A, lanes 2-6). To exclude the possibility that p53 activation is an effect of the protein transduction domain of HIV-1 TAT protein, similar set of experiment was performed using TAT-PTD peptide alone (consisting of only the 11-mer TAT-sequence). […] This observation reconfirmed that the RS domain (288-350 aa) of SMAR1 could exclusively activate p53 by mediating its phosphorylation specifically at serine-15 residue. Serine-15 phosphorylation of p53 is associated with its increased transcription efficiency, decreased affinity for MDM2, and its increased nuclear retention. One of the target genes activated by p53 is p21, an inhibitor of a subset of the cyclin-dependent kinases including cdc-2 (Sherr, C. J., and Roberts, J. M. (1999) Genes Dev. 13, 1501-1512). To evaluate the significance of peptide-mediated p53 activation, P44 peptide-treated lysates were further checked for tyrosine 15 phosphorylation of cdc2. […] HEK 293 cells were treated with SM peptide and checked for p53 as well as pcdc-2 levels.
(§2) Serine 347 residue of SMAR1: critical for mediating the effects of full-length SMAR1: Once it was established that the serine motif (SSSSYS) plays a pivotal role in SMAR1-mediated p53 activation, it got necessary to identify the serine residue within this motif that might be necessary in mediating these effects. To identify the critical serine residue within P44 peptide, various point-mutant peptides were custom synthesized, that varied with respect to the position of serine residue that was mutated (Table 1). To evaluate the functionality of mutant chimeric TAT-SMAR1 peptides [PS347A, PS348A, PS349A, PS350A and RS mutant (SM)] in comparison to the TAT-SMAR1 WT peptide (P44), HEK 293 cells were treated with 10 μM concentration of either of the peptides and protein lysates were prepared after 12 h incubation period. The lysates were then processed for immunoblotting with pSer-15 p53 and pcdc-2 antibodies. […] However, this was not the case with other mutated peptides. When the alanine was replaced back to serine at the 347 residue (FIG. 4A, lanes 3-5), the functionality of the peptide was restored as observed with increase in pcdc-2 levels. […] However, in case of SM (where serine residues from 347-350 were replaced by alanines) treated cells (FIG. 4A, lane 7), there was no difference in the pSer-15 p53 as well as pcdc-2 levels compared to either untreated or PS347A treated cells (FIG. 4A, lanes 1 and 2, respectively).
(§3) FIG. 3. P44 peptide activates p53-mediated cell cycle pathway. A, HEK 293 cells were seeded at a density of 5×10^5 and after 24 h, was incubated with increasing concentrations of the TAT-SMAR1 WT (P44) peptide. Protein lysates were prepared and then immunoblotted with antibodies to total p53, phospho serine-15. B, The same set of experiment was repeated with TAT PTD peptide representing the PTD carrier sequence alone and immunoblotted with phospho serine-15, in comparison of P44 treated cells. C, The status of phospho cdc-2 was further analyzed in P44 peptide treated cells. Total […] was used as an internal control. D, The same set of experiments were again repeated using TAT-SMAR1 RS mutant (SM) peptide and whole cell lysates were probed for phospho p53 serine-15 and pcdc-2 antibodies. […] was used as a loading control.
(§4) FIG. 4. Serine 347 residue of SMAR1 mediates p53 activation and stabilization. […]

[3] = tested on: cdc2 (tyrosine 15 phosphorylation, pcdc-2); experiment: Western blotting for pcdc-2 in peptide-treated HEK 293 cells; assay type: cell-based; details: for pcdc-2 level: HEK 293, 10 μM peptide, 12 h (FIG. 4A); for pcdc-2 level compared to untreated cells: HEK 293, peptide-treated lysates (FIG. 3C, 3D)
Experimental: as §1, §2, §3, §4

[4] = tested on: protein kinase C (PKC) family of proteins; experiment: In vitro phosphorylation (kinase) assay with HEK 293 whole cell extract; assay type: biochemical; details: for phosphorylation of peptide by extract of staurosporine-treated cells: extract from 293 cells treated with 20 nM staurosporine (PKC inhibitor); for phosphorylation of peptide by whole cell extract: extract from untreated 293 cells

Row | Sequence | activation of p53 (p21 promoter driven luciferase activity) [1] | p53 activation (pSer-15 p53 level) [2] | expression level of p53 phospho-serine 15 compared to untreated cells ([2]; HEK 293, SM peptide-treated lysates (FIG. 3D)) | pcdc-2 level [3] | pcdc-2 level compared to untreated cells [3] | phosphorylation of peptide by extract of staurosporine-treated cells [4] | phosphorylation of peptide by whole cell extract [4] | p21 promoter luciferase activity with peptide alone ([1]; K562 (p53-/-) cells without p53 construct) | increase in expression of phosphorylated p53 (pSerine-15 p53) ([2]; HEK 293, P44 1-100 μM, 12 h) | total p53 expression (DO-1) ([2]; HEK 293, P44 1-100 μM, 12 h) | increased γ-P32 ATP incorporation in comparison to mutant counterpart (SM) ([4]; whole cell extract from untreated 293 cells)
1 | YGRKKRRQRRRTAWRRKQRGQSLAVKSFSRRTPAAAAYSASETM [SM, P44 mutant where serine residues from 347-350 were replaced by alanines] | complete loss | no difference | no increase | no difference | no increase | no difference | not and further reduction in its phosphorylation compared to PS347A peptide |  |  |  | 
2 | YGRKKRRQRRRTAWRRKQRGQSLAVKSFSRRTPASSSYSASETM [PS347A, point mutant of P44, serine 347 replaced by alanine] | complete loss | no significant activation |  | decreased |  | no difference | abolished |  |  |  | 
3 | YGRKKRRQRRRTAWRRKQRGQSLAVKSFSRRTPSASSYSASETM [PS348A, point mutant of P44, serine 348 replaced by alanine] | No significant alteration | No significant decrease |  | increase |  | failed to phosphorylate |  |  |  |  | 
4 | YGRKKRRQRRRTAWRRKQRGQSLAVKSFSRRTPSSASYSASETM [PS349A, point mutant of P44, serine 349 replaced by alanine] | No significant alteration | No significant decrease |  | increase |  | failed to phosphorylate |  |  |  |  | 
5 | YGRKKRRQRRRTAWRRKQRGQSLAVKSFSRRTPSSSAYSASETM [PS350A, point mutant of P44, serine 350 replaced by alanine] | No significant alteration | No significant decrease |  | increase |  | failed to phosphorylate |  |  |  |  | 
6 | YGRKKRRQRRRTAWRRKQRGQSLAVKSFSRRTPSSSSYSASETM [P44, 33 mer SMAR1 peptide (residues 324-357) conjugated with 11-mer TAT-PTD] | about 1.5 fold |  |  | increase | upregulation | failed to phosphorylate | gets phosphorylated | no activity | 4.5 fold | slight increase | 6 to 7 fold
